Measurements as given in patent publication US20220306617A1, “SUBSTITUTED 1,3-PHENYL HETEROARYL DERIVATIVES AND THEIR USE IN THE TREATMENT OF DISEASE” (NOVARTIS AG, priority 2019, published 2022).
Where a name gives a salt, the structure may show the parent alone.

Target: T1, abc isoform of human TMEM16A channel expressed in CHO cells (Homo sapiens, UniProt Q5XXA6, DEL476-501)
T1 construct: expressed in transfected cells; host or cells: CHO cells, doxycycline-inducible expression under Blasticidin/Zeocin selection
T1 sequence (Q5XXA6 with tags, fused parts or gaps isoform Q5XXA6-5 DEL539-564): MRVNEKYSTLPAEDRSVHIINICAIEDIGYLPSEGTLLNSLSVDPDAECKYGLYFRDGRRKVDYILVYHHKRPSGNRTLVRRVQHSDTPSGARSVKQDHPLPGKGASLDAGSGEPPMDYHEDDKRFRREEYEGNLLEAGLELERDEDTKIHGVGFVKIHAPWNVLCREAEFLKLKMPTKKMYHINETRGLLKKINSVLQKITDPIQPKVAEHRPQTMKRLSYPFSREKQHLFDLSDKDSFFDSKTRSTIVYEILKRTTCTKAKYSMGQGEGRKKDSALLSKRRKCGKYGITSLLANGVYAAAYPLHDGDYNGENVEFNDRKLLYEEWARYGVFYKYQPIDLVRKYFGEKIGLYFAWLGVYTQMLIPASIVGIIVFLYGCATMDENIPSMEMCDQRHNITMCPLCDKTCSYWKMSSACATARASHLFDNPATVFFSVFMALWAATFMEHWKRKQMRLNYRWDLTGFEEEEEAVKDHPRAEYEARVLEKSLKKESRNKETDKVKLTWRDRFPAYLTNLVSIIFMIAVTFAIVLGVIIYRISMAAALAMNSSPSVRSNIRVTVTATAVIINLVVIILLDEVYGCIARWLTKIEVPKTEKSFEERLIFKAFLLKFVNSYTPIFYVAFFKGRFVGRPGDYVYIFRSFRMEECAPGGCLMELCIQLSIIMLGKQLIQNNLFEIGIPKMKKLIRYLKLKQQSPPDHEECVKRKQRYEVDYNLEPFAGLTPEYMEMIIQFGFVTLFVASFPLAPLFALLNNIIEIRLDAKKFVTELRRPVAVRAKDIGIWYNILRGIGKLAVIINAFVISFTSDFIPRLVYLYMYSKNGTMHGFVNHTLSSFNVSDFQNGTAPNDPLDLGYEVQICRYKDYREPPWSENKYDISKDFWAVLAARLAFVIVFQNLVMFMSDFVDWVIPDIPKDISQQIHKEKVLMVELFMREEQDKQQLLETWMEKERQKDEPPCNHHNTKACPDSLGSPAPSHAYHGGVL
Assay: Automated patch clamping (QPatch) assay to measure TMEM16A activity in whole-cell
Assay type: cell-based
Conditions: for EC50: CHO cells expressing human TMEM16A (abc), whole-cell automated patch clamp, Hill fit, read-out: TMEM16A QPATCH assay EC50 V3 EC50; for Emax: CHO, read-out: TMEM16A QPATCH assay EC50 V3 Assay Window (% TMEM16A max activation)
Summary of the method: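 Whole-cell currents were recorded by planar automated patch clamp from induced CHO cells (doxycycline 1 μg/mL, 18-24 h), using a −70 mV hold, +70 mV step and −90 to +70 mV ramp. Values: Hill-fitted EC50, and activation scaled between vehicle current and reference-potentiator maximum; 0.3% DMSO final.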

[1] = maximum current at highest dose relative to reference potentiator at maximal concentration (upper limit) and vehicle (lower limit)

| Structure (SMILES) | EC50 [nM] | Emax [1] [%] | TMEM16A QPATCH assay EC50 V3 Assay Window (% TMEM16A max activation) [1] [%] |
| --- | --- | --- | --- |
| CCC(CC)NC(=O)c1cnc(-c2cccc(-c3cc(C(=O)N[C@H](C(=O)OCc4ccccc4)C(C)C)n[nH]3)c2)o1 [Example 3.3, (S)-Benzyl 3-Methyl-2-(5-(3-(5-(Pentan-3-Ylcarbamoyl)Oxazol-2-Yl)Phenyl)-1 H-Pyrazole-3-Carboxamido)Butanoate] | 180 | 133 |  |
| CCC(CC)NC(=O)c1cc(-c2cccc(-c3ncc(C(=O)NCC4CCCCO4)o3)c2)[nH]n1 (stereo not drawn) [Example 1.18, 2-(3-(3-(Pentan-3-Ylcarbamoyl)-1H-Pyrazol-5-Yl)Phenyl)-N-((Tetrahydro-2H-Pyran-2-Yl)Methyl)Oxazole-5-Carboxamide] | 180 | 39 |  |
| CCOC(=O)[C@@H](NC(=O)c1cnc(-c2cccc(-c3cc(C(=O)N[C@@H](C(=O)OC)C(C)C)[nH]n3)c2)o1)C(C)C [Example 2.0, (S)-Ethyl 2-(2-(3-(5-(((R)-1-Methoxy-3-Methyl-1-Oxobutan-2-Yl)Carbamoyl)-1 H-Pyrazol-3-Yl)Phenyl)Oxazole-5-Carboxamido)-3-Methylbutanoate] | 140 | 87 |  |
| CCC(CC)NC(=O)c1cnc(-c2cccc(-c3cc(C(=O)NC(C)C4CCC4)n[nH]3)c2)o1 (stereo not drawn) [Example 3.10, 2-(3-(3-((1-Cyclobutylethyl)Carbamoyl)-1H-Pyrazol-5-Yl)Phenyl)-N-(Pentan-3-Yl)Oxazole-5-Carboxamide] | 90 | 95 |  |
| COC(=O)[C@@H](NC(=O)c1cnc(-c2cccc(-c3cc(C(=O)N[C@@H](C)C4CC4)n(CC(O)C(F)(F)F)n3)c2)o1)C(C)C (single isomer, unassigned) [8.1 (ii)] | 20 |  | 124 |
| CCC(CC)NC(=O)c1cnc(-c2cccc(-c3nc(C(=O)NC(CC)CC)n(CCO)n3)c2)o1 [Example 16.0, 2-(3-(1-(2-Hydroxyethyl)-5-(Pentan-3-Ylcarbamoyl)-1H-1,2,4-Triazol-3-Yl)Phenyl)-N-(Pentan-3-Yl)Oxazole-5-Carboxamide] | 130 | 177 |  |
| CCC(CC)NC(=O)c1cnc(-c2cccc(-c3cc(C(=O)NCc4ccc5c(c4)OCO5)n[nH]3)c2)o1 [Example 3.22, 2-(3-(3-((Benzo[d][1,3]Dioxol-5-Ylmethyl)Carbamoyl)-1H-Pyrazol-5-Yl)Phenyl)-N-(Pentan-3-Yl)Oxazole-5-Carboxamide] | 140 | 60 |  |
| CCC(CC)NC(=O)c1cc(-c2cccc(-c3ncc(C(=O)N[C@H](C(=O)OC(C)(C)C)c4ccccc4)o3)c2)[nH]n1 [Example 1.37, (S)-Tert-Butyl 2-(2-(3-(3-(Pentan-3-Ylcarbamoyl)-1H-Pyrazol-5-yl)Phenyl)Oxazole-5-Carboxamido)-2-Phenylacetate] | 200 | 81 |  |
| CCC(CC)NC(=O)c1cnc(-c2cccc(-c3cc(C(=O)N[C@@H](C)C(=O)OCc4ccccc4)n[nH]3)c2)o1 [Example 3.64, (S)-Benzyl 2-(5-(3-(5-(Pentan-3-Ylcarbamoyl)Oxazol-2-Yl)Phenyl)-1H-Pyrazole-3-Carboxamido)Propanoate Trifluoroacetate] | 150 | 72 |  |
| CCC(CC)NC(=O)c1cc(-c2cccc(-c3ncc(C(=O)N[C@H](C)C4CCCCC4)o3)c2)[nH]n1 [Example 1.42, (R)-N-(1-Cyclohexylethyl)-2-(3-(3-(Pentan-3-Ylcarbamoyl)-1 H-Pyrazol-5-yl)Phenyl)Oxazole-5-Carboxamide] | 750 | 72 |  |
| CC(C)OC(=O)[C@@H](NC(=O)c1cnc(-c2cccc(-c3nnc(C(=O)N[C@@H](C)C4CC4)[nH]3)c2)o1)C(C)C [Example 12.12] | 190 | 92 |  |
| CCC(CC)NC(=O)c1cnc(-c2cccc(-c3cc(C(=O)N[C@H](C)C4CCCCC4)n[nH]3)c2)o1 [Example 3.44, (R)-2-(3-(3-((1-Cyclohexylethyl)Carbamoyl)-1H-Pyrazol-5-Yl)Phenyl)-N-(Pentan-3-Yl)Oxazole-5-Carboxamide] | 230 | 82 |  |
| CC(C)[C@H](C)NC(=O)c1cnc(-c2cccc(-c3nnc(C(=O)N[C@@H](C)C4CC4)[nH]3)c2)o1 [Example 12.11] | 150 | 80 |  |
| CCC(CC)NC(=O)c1cnc(-c2cccc(-c3cc(C(=O)NCC4CCCCC4)n[nH]3)c2)o1 [Example 3.18, 2-(3-(3-((Cyclohexylmethyl)Carbamoyl)-1H-Pyrazol-5-Yl)Phenyl)-N-(Pentan-3-Yl)Oxazole-5-Carboxamide] | 30 | 66 |  |
| CCOC(=O)[C@@H](NC(=O)c1cnc(-c2cccc(-c3nnc(C(=O)NC(C4CC4)C4CC4)[nH]3)c2)o1)C(C)C [Example 12.6, (S)-Ethyl 2-(2-(3-(5-((Dicyclopropylmethyl)Carbamoyl)-4H-1,2,4-Triazol-3-Yl)Phenyl)Oxazole-5-Carboxamido)-3-Methylbutanoate] | 20 | 142 |  |
| CCOC(=O)CCCCCn1nc(-c2cccc(-c3ncc(C(=O)NC(CC)CC)o3)c2)nc1C(=O)NC(CC)CC [Example 15.11] | 440 | 88 |  |
| CCOC(=O)Cn1nc(-c2cccc(-c3ncc(C(=O)NC(CC)CC)o3)c2)nc1C(=O)NC(CC)CC [Example 15.2, Ethyl 2-(5-(Pentan-3-Ylcarbamoyl)-3-(3-(5-(Pentan-3-Ylcarbamoyl)Oxazol-2-Yl)Phenyl)-1 H-1,2,4-Triazol-1-Yl)Acetate] | 80 | 80 |  |
| CCC(CC)NC(=O)c1cc(-c2cccc(-c3ncc(C(=O)N[C@@H](C)C4CC4)o3)c2)[nH]n1 [Example 1.6, (S)-N-(1-Cyclopropylethyl)-2-(3-(3-(Pentan-3-Ylcarbamoyl)-1H-Pyrazol-5-Yl)Phenyl)Oxazole-5-Carboxamide] | 130 | 61 |  |
| CCOC(=O)[C@H](CCSC)NC(=O)c1cnc(-c2cccc(-c3cc(C(=O)NC(CC)CC)n[nH]3)c2)o1 [Example 1.14, (S)-Ethyl 4-(Methylthio)-2-(2-(3-(3-(Pentan-3-Ylcarbamoyl)-1H-Pyrazol-5-yl)Phenyl)Oxazole-5-Carboxamido)Butanoate] | 680 | 111 |  |
| COC(=O)[C@@H](NC(=O)c1cnc(-c2cccc(-c3cc(C(=O)N[C@@H](C)C4CC4)n[nH]3)c2)o1)C(C)C [Example 1.7, (S)-Methyl 2-(2-(3-(3-(((S)-1-Cyclopropylethyl)Carbamoyl)-1H-Pyrazol-5-yl)Phenyl)Oxazole-5-Carboxamido)-3-Methylbutanoate] | 90 | 69 |  |
| C[C@H](NC(=O)c1cc(-c2cccc(-c3ncc(C(=O)N[C@H](C)C4CC4)o3)c2)[nH]n1)C1CC1 [Example 1.8, N-((R)-1-Cyclopropylethyl)-2-(3-(3-(((S)-1-Cyclopropylethyl)Carbamoyl)-1H-Pyrazol-5-Yl)Phenyl)Oxazole-5-Carboxamide] | 170 | 54 |  |
| CCOC(=O)[C@@H](NC(=O)c1cnc(-c2cccc(-c3cc(C(=O)NC(C(F)F)C4CC4)[nH]n3)c2)o1)C(C)C (stereo partly drawn) [Example 2.4, (2S)-Ethyl 2-(2-(3-(5-((1-Cyclopropyl-2,2-Difluoroethyl)Carbamoyl)-1H-Pyrazol-3-Yl)Phenyl)Oxazole-5-Carboxamido)-3-Methylbutanoate] | 20 | 99 |  |
| CCOC(=O)[C@@H](NC(=O)c1cc(-c2cccc(-c3ncc(C(=O)N[C@H](C(=O)OCC)C(C)C)o3)c2)[nH]n1)C(C)C [Example 2.2, (S)-Ethyl 2-(2-(3-(3-(((S)-1-Ethoxy-3-Methyl-1-Oxobutan-2-Yl)Carbamoyl)-1 H-Pyrazol-5-Yl)Phenyl)Oxazole-5-Carboxamido)-3-Methylbutanoate] | 32 | 112 |  |
| CCC(CC)NC(=O)c1cnc(-c2cccc(-c3cc(C(=O)NC(COC)C(C)C)n[nH]3)c2)o1 (stereo not drawn) [Example 3.36, 2-(3-(3-((1-Methoxy-3-Methylbutan-2-Yl)Carbamoyl)-1H-Pyrazol-5-Yl)Phenyl)-N-(Pentan-3-Yl)Oxazole-5-Carboxamide] | 190 | 97 |  |
